Source: patent publication US12522612B2, “PDE4 inhibitors, pharmaceutical compositions, and therapeutic applications” (BioTheryX, Inc., priority 2019, dated 2026)

Tested on: TNF-α
Assay: Cell-based TNF-α inhibition assay in LPS-induced PBMCs (Meso Scale)
Settings: PBMC, PBMCs pretreated 1 h, LPS 100 ng/mL 18-24 h, relative to stimulated DMSO control; for inhibition at 0.1 µM: compound concentration 0.1 μM; for inhibition at 1 µM: compound concentration 1 μM
Description: Frozen primary blood mononuclear cells (PBMCs) were quick thawed, washed once with RPMI 1640 media supplemented with 10% fetal bovine serum, 1% penicillin, and 1% streptomycin, and plated in a 96 well plate at 200,000 cells per well. The cells were pretreated with DMSO only as a control or a compound for 1 h, and then induced with LPS (lipopolysaccharide) (100 ng/mL) for 18-24 h. The supernatant was analyzed for TNF-α using the Meso Scale assay. Compound activity was determined as a percentage of the stimulated DMSO control. The results are summarized in Table 1, where A represents a percent inhibition value ≥60%; B represents a percent inhibition value <60% and ≥40%; C represents a percent inhibition value <40% and >20%; and D represents a single percent inhibition value <20%.

| Compound | inhibition at 0.1 µM | inhibition at 1 µM |
| --- | --- | --- |
| CCOc1cc([C@@H](CS(C)(=O)=O)N2C(=O)c3cc(CCCN4CCC(c5cc(F)cc6c5CN(C5CCC(=O)NC5=O)C6=O)CC4)cc(NC(C)=O)c3C2=O)ccc1OC (stereo partly drawn) [Compound B69, N-(6-(3-(4-(2-(2,6-Dioxopiperidin-3-yl)-6-fluoro-1-oxoisoindolin-4-yl)piperidin-1-yl)propyl)-2-((S)-1-(3-ethoxy-4-methoxyphenyl)-2-(methylsulfonyl)ethyl)-1,3-dioxoisoindolin-4-yl)acetamide] | 40 to 60% | ≥ 60% |
| CCOc1cc([C@@H](CS(C)(=O)=O)N2C(=O)c3cccc(NC(=O)CCOCCOCCOCCNc4cccc5c4C(=O)N(C4CCC(=O)NC4=O)C5=O)c3C2=O)ccc1OC (stereo partly drawn) [Compound B43, 3-(2-(2-(2-((2-(2,6-Dioxopiperidin-3-yl)-1,3-dioxoisoindolin-4-yl)amino)ethoxy)-ethoxy)ethoxy)-N-(2-((S)-1-(3-ethoxy-4-methoxyphenyl)-2-(methylsulfonyl)ethyl)-1,3-dioxoisoindolin-4-yl)propanamide] | ≥ 60% | ≥ 60% |
| O=C1CCC(N2Cc3cc(C4CCN(CCCCCCCOc5cc(C(=O)Nc6c(Cl)cncc6Cl)ccc5OC(F)F)CC4)c(F)cc3C2=O)C(=O)N1 (stereo not shown) [Compound B61, N-(3,5-Dichloropyridin-4-yl)-4-(difluoromethoxy)-3-((7-(4-(2-(2,6-dioxopiperidin-3-yl)-6-fluoro-1-oxoisoindolin-5-yl)piperidin-1-yl)heptyl)oxy)benzamide] | ≥ 60% | ≥ 60% |
| CCOc1cc([C@@H](CS(C)(=O)=O)N2C(=O)c3cccc(NC(=O)CCCCCCCCN4CCC(c5cc6c(cc5F)C(=O)N(C5CCC(=O)NC5=O)C6)CC4)c3C2=O)ccc1OC (stereo partly drawn) [Compound B75, 9-(4-(2-(2,6-Dioxopiperidin-3-yl)-6-fluoro-1-oxoisoindolin-5-yl)piperidin-1-yl)-N-(2-((S)-1-(3-ethoxy-4-methoxyphenyl)-2-(methylsulfonyl)ethyl)-1,3-dioxoisoindolin-4-yl)nonanamide] | ≥ 60% | ≥ 60% |
| COc1ccc(C2CNC(=O)C2)cc1OCCCCCCCNc1cccc2c1C(=O)N(C1CCC(=O)NC1=O)C2=O (stereo not shown) [Compound B66, 2-(2,6-Dioxopiperidin-3-yl)-4-((7-(2-methoxy-5-(5-oxopyrrolidin-3-yl)phenoxy)-heptyl)amino)isoindoline-1,3-dione] |  | ≥ 60% |
| O=C1CC(c2ccc(OCCCCCCCN3CCC(c4cc(F)cc5c4CN(C4CCC(=O)NC4=O)C5=O)CC3)c(OC3CCCC3)c2)CN1 (stereo not shown) [Compound B57, 3-(4-(1-(7-(2-(Cyclopentyloxy)-4-(5-oxopyrrolidin-3-yl)phenoxy)heptyl)piperidin-4-yl)-6-fluoro-1-oxoisoindolin-2-yl)piperidine-2,6-dione] |  | < 20% |
| CCOc1cc([C@@H](CS(C)(=O)=O)N2C(=O)c3cc(CCCCC(=O)N4CCC(C#Cc5cccc6c5CN(C5CCC(=O)NC5=O)C6=O)CC4)cc(NC(C)=O)c3C2=O)ccc1OC (stereo partly drawn) [Compound B16, N-(6-(5-(4-((2-(2,6-dioxopiperidin-3-yl)-1-oxoisoindolin-4-yl)ethynyl)piperidin-1-yl)-5-oxopentyl)-2-((S)-1-(3-ethoxy-4-methoxyphenyl)-2-(methylsulfonyl)ethyl)-1,3-dioxoisoindolin-4-yl)acetamide] | ≥ 60% | ≥ 60% |
| COc1ccc(N2Cc3sccc3C2=O)cc1OCCCCCCCN1CCC(c2cc(F)cc3c2CN(C2CCC(=O)NC2=O)C3=O)CC1 (stereo not shown) [Compound B80, 3-(6-Fluoro-4-(1-(7-(2-methoxy-5-(4-oxo-4,6-dihydro-5H-thieno[2,3-c]pyrrol-5-yl)phenoxy)heptyl)piperidin-4-yl)-1-oxoisoindolin-2-yl)piperidine-2,6-dione] |  | ≥ 60% |
| O=C1CCC(N2Cc3c(cc(F)cc3C3CCN(CCCCCCCCCOc4cc(C(=O)Nc5c(Cl)cncc5Cl)ccc4OC(F)F)CC3)C2=O)C(=O)N1 (stereo not shown) [Compound B45, N-(3,5-Dichloropyridin-4-yl)-4-(difluoromethoxy)-3-((9-(4-(2-(2,6-dioxopiperidin-3-yl)-6-fluoro-1-oxoisoindolin-4-yl)piperidin-1-yl)nonyl)oxy)benzamide] |  | ≥ 60% |
| CCOc1cc([C@@H](CS(C)(=O)=O)N2C(=O)c3cccc(NC(=O)CCCCCCCCC(=O)N[C@H](C(=O)N4C[C@H](O)C[C@H]4C(=O)NCc4ccc(-c5scnc5C)cc4)C(C)(C)C)c3C2=O)ccc1OC [Compound B63, N^1-(2-((S)-1-(3-Ethoxy-4-methoxyphenyl)-2-(methylsulfonyl)ethyl)-1,3-dioxoisoindolin-4-yl)-N^10—((S)-1-((2S,4R)-4-hydroxy-2-((4-(4-methylthiazol-5-yl)benzyl)carbamoyl)pyrrolidin-1-yl)-3,3-dimethyl-1-oxobutan-2-yl)decanediamide] | ≥ 60% | ≥ 60% |
| Nc1ccc2c(c1)C(=O)N(c1ccc(OCCCCCCCN3CCC(c4cc(F)cc5c4CN(C4CCC(=O)NC4=O)C5=O)CC3)c(OC3CCCC3)c1)C2=O (stereo not shown) [Compound B58, 5-Amino-2-(3-(cyclopentyloxy)-4-((7-(4-(2-(2,6-dioxopiperidin-3-yl)-6-fluoro-1-oxoisoindolin-4-yl)piperidin-1-yl)heptyl)oxy)phenyl)isoindoline-1,3-dione] |  | < 20% |
| CCOc1cc([C@H](CS(=O)(=O)C2CC2)N2C(=O)c3csc(NC(=O)COC)c3C2=O)ccc1OC [Compound A9, (R)—N-(5-(2-(cyclopropylsulfonyl)-1-(3-ethoxy-4-methoxyphenyl)ethyl)-4,6-dioxo-5,6-dihydro-4H-thieno[3,4-c]pyrrol-1-yl)-2-methoxyacetamide] | 40 to 60% | ≥ 60% |
| CCOc1cc([C@@H](CS(C)(=O)=O)N2C(=O)c3cccc(NC(=O)CCCCCCCCCCCNc4cccc5c4C(=O)N(C4CCC(=O)NC4=O)C5=O)c3C2=O)ccc1OC (stereo partly drawn) [Compound B71, 12-((2-(2,6-Dioxopiperidin-3-yl)-1,3-dioxoisoindolin-4-yl)amino)-N-(2-((S)-1-(3-ethoxy-4-methoxyphenyl)-2-(methylsulfonyl)ethyl)-1,3-dioxoisoindolin-4-yl)dodecanamide] | ≥ 60% | ≥ 60% |
| CCOc1cc([C@H](CS(=O)(=O)C2CC2)N2C(=O)c3csc(NC(C)=O)c3C2=O)ccc1OC [Compound A10, (R)—N-(5-(2-(cyclopropylsulfonyl)-1-(3-ethoxy-4-methoxyphenyl)ethyl)-4,6-dioxo-5,6-dihydro-4H-thieno[3,4-c]pyrrol-1-yl)acetamide] | < 20% | ≥ 60% |
| O=C1CCC(N2Cc3c(cc(F)cc3C3CCN(CCCCCCCCCCCCOc4cc(C(=O)Nc5c(Cl)cncc5Cl)ccc4OC(F)F)CC3)C2=O)C(=O)N1 (stereo not shown) [Compound B73, N-(3,5-Dichloropyridin-4-yl)-4-(difluoromethoxy)-3-((12-(4-(2-(2,6-dioxopiperidin-3-yl)-6-fluoro-1-oxoisoindolin-4-yl)piperidin-1-yl)dodecyl)oxy)benzamide] | ≥ 60% | ≥ 60% |
